From PubChem BioAssay (NCI)
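A five-concentration, 48-hour dose response in 96-well plates underlies each endpoint, interpolated linearly between surrounding concentrations. TGI marks complete inhibition of growth.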

What was measured:
Experiment in all cases: NCI tumour cell line growth inhibition, 48 h
[1] = test system: 786-0 renal
[2] = test system: A498 renal
[3] = test system: A549 NSCLC
[4] = test system: ACHN renal
[5] = test system: BT-549 breast
[6] = test system: COLO 205 colon
[7] = test system: DU-145 prostate
[8] = test system: EKVX NSCLC
[9] = test system: HCC-2998 colon
[10] = test system: HCT-116 colon
[11] = test system: HCT-15 colon
[12] = test system: HOP-62 NSCLC
[13] = test system: HS 578T breast
[14] = test system: K-562 leukemia
[15] = test system: KM12 colon
[16] = test system: LOX IMVI melanoma
[17] = test system: M14 melanoma
[18] = test system: MCF7 breast
[19] = test system: MDA-MB-231 breast
[20] = test system: MDA-MB-435
[21] = test system: MDA-N
[22] = test system: MOLT-4 leukemia
[23] = test system: NCI-H226 lung
[24] = test system: NCI-H23 lung
[25] = test system: NCI-H460 lung
[26] = test system: NCI/ADR-RES ovarian
[27] = test system: OVCAR-3 ovarian
[28] = test system: OVCAR-4 ovarian
[29] = test system: OVCAR-5 ovarian
[30] = test system: OVCAR-8 ovarian
[31] = test system: PC-3 prostate
[32] = test system: RPMI-8226 leukemia
[33] = test system: RXF 393 renal
[34] = test system: SF-268 CNS
[35] = test system: SF-295 CNS
[36] = test system: SK-MEL-2 melanoma
[37] = test system: SK-MEL-28 melanoma
[38] = test system: SK-OV-3 ovarian
[39] = test system: SN12C renal
[40] = test system: SNB-19 CNS
[41] = test system: SNB-75 CNS
[42] = test system: SR leukemia
[43] = test system: SW-620 colon
[44] = test system: T-47D breast
[45] = test system: TK-10 renal
[46] = test system: U251 CNS
[47] = test system: UACC-257 melanoma
[48] = test system: UACC-62 melanoma
[49] = test system: UO-31 renal

Measured: TGI

O=C(O)CCC(N=C(C(=NC(CCC(=O)O)C(=O)O)c1ccccc1)c1ccccc1)C(=O)O (centres undefined)
> 100 µM: all assays above
